# Measured values: patent US8758782B2, “Excipient preservatives and pharmaceutical compositions comprised thereof” (Galderma Research & Development, priority 2007, dated 2014)
# Assays:
# [1] = system: Bacteria and fungi (Escherichia coli, Pseudomonas aeruginosa, Staphylococcus aureus, Candida albicans, Aspergillus niger); assay: PET, overall compliance with European and U.S. pharmacopoeia criteria; assay type: cell-based; settings: additive in standard emulsion
# Source text: (§1) A particular problem that must be solved by the invention is that of effectively protecting a pharmaceutical topical composition while at the same time meeting the criteria required by the European and U.S. pharmacopoeias. This is because, since the purpose of the pharmaceutical composition is to become a pharmaceutical product with a marketing authorization, it is imperative for the composition according to the invention to meet these criteria. In order to verify this point and to determine the antimicrobial action of the various mixtures of excipients according to the invention, a test protocol, known as the PET (Preservative Efficacy Test), exists. The PET comprises artificially inoculating the compositions with a known number of microorganisms, and then determining the decrease in the latter in the compositions tested, at given times. The protocol of this test is set up in order to abide by the recommendations of the European and U.S. pharmacopoeias. The test and also the recommendations of the European and U.S. pharmacopoeias are described in Example 1 to follow. The mixture of excipients as preservatives, described herein, should therefore meet the criteria of these pharmacopoeias in the PET.
# This test comprises artificially contaminating aliquots of formulation by means of a calibrated inoculum of specific microorganisms and incubating the same at precise temperatures. Samples are taken from the contaminated aliquots at given time intervals in order to count the microorganisms.
# It also makes it obligatory to study the reductions in population of the microorganisms introduced into the formulation according to two acceptability criteria.
# Since the A criteria are the most strict, it are […] generally required that they be met.
# In justified cases, when the A criteria cannot be complied with, for example owing to an increase in the risk of adverse reactions, the B criteria, which are less drastic, apply.
# NI (Non-Increase) signifies that there must not be an increase in the number of microorganisms.
# It imposes logarithmic reductions in the population of microorganisms which are different than that of the European pharmacopoeia.
# [2] = system: Escherichia coli, reference ATCC 8739; assay: Preservative Efficacy Test (PET), Escherichia coli; assay type: cell-based; parameters: key to Gram− bacterium, Esoherichia coli: −: No European pharmacopoeia criterion or USP criterion is met; +: for the coli: the USP criteria are met; ++: the European pharmacopoeia criteria A are met; settings: additive in standard emulsion
# Source text: as §1, with “The test and also the recommendations of the European and U.S. pharmacopoeias are described in Example 1 to follow.” left out, “PET. This test comprises artificially contaminating aliquots of formulation by means of a calibrated inoculum of specific microorganisms and incubating the same at precise temperatures. Samples are taken from the contaminated aliquots at given time intervals in order to count the microorganisms. Bacteria: • Escherichia coli, reference ATCC 8739. • Pseudomonas aeruginosa, reference ATCC 9027. • Staphylococcus aureus, reference ATCC 6538.” for “PET.”
# [3] = system: Pseudomonas aeruginosa, reference ATCC 9027; assay: Preservative Efficacy Test (PET), Pseudomonas aeruginosa; assay type: cell-based; parameters: key to Gram− bacterium, Pseudomonas aeruginosa: −: No European pharmacopoeia criterion or USP criterion is met; +: for the coli: the USP criteria are met; ++: the European pharmacopoeia criteria A are met; settings: additive in standard emulsion
# Source text: as §1, with “The test and also the recommendations of the European and U.S. pharmacopoeias are described in Example 1 to follow.” left out, “PET. This test comprises artificially contaminating aliquots of formulation by means of a calibrated inoculum of specific microorganisms and incubating the same at precise temperatures. Samples are taken from the contaminated aliquots at given time intervals in order to count the microorganisms. Bacteria: • Pseudomonas aeruginosa, reference ATCC 9027; NCIMB 8626; CIP 82.118. • Staphylococcus aureus, reference ATCC 6538; NCTC 10788; NCIMB 9518; CIP 4.83. Bacteria: • Escherichia coli, reference ATCC 8739. • Pseudomonas aeruginosa, reference ATCC 9027. • Staphylococcus aureus, reference ATCC 6538.” for “PET.”
# [4] = pH of the emulsion containing the additive; assay type: physicochemical; settings: standard emulsion with 2% citric acid
# [5] = system: Candida albicans, reference ATCC 10231; assay: Preservative Efficacy Test (PET), Candida albicans; assay type: cell-based; parameters: key to Yeast, Candida albicans: −: No European pharmacopoeia criterion or USP criterion is met; +: for the coli: the USP criteria are met; ++: the European pharmacopoeia criteria A are met; settings: additive in standard emulsion
# Source text: as §1, with “The test and also the recommendations of the European and U.S. pharmacopoeias are described in Example 1 to follow.” left out, “PET. This test comprises artificially contaminating aliquots of formulation by means of a calibrated inoculum of specific microorganisms and incubating the same at precise temperatures. Samples are taken from the contaminated aliquots at given time intervals in order to count the microorganisms. Fungi: • Candida albicans, reference ATCC 10231; NCPF 3179; IP 48.72. • Aspergillus niger, reference ATCC 16404; IMI 149007; IP 1431.83. Fungi: • Candida albicans, reference ATCC 10231. • Aspergillus niger, reference ATCC 16404.” for “PET.”
# [6] = system: Staphylococcus aureus, reference ATCC 6538; assay: Preservative Efficacy Test (PET), Staphylococcus aureus; assay type: cell-based; parameters: key to Gram+ bacterium, Staphylococcus aureus: −: No European pharmacopoeia criterion or USP criterion is met; +: for the coli: the USP criteria are met; ++: the European pharmacopoeia criteria A are met; settings: additive in standard emulsion
# Source text: as §1, with “The test and also the recommendations of the European and U.S. pharmacopoeias are described in Example 1 to follow.” left out, “PET. This test comprises artificially contaminating aliquots of formulation by means of a calibrated inoculum of specific microorganisms and incubating the same at precise temperatures. Samples are taken from the contaminated aliquots at given time intervals in order to count the microorganisms. Bacteria: • Pseudomonas aeruginosa, reference ATCC 9027; NCIMB 8626; CIP 82.118. • Staphylococcus aureus, reference ATCC 6538; NCTC 10788; NCIMB 9518; CIP 4.83. Bacteria: • Escherichia coli, reference ATCC 8739. • Pseudomonas aeruginosa, reference ATCC 9027. • Staphylococcus aureus, reference ATCC 6538.” for “PET.”
# [7] = system: Aspergillus niger, reference ATCC 16404; assay: Preservative Efficacy Test (PET), Aspergillus niger; assay type: cell-based; parameters: key to Moulds, Aspergillus Niger: −: No European pharmacopoeia criterion or USP criterion is met; +: for the coli: the USP criteria are met; ++: the European pharmacopoeia criteria A are met; settings: additive in standard emulsion at its given % (EDTA 0.15, citric acid 2, sodium ascorbate 2, tocopherol 0.05, BHT 1, propyl gallate 0.1, ascorbyl palmitate 1)
# Source text: as §1, with “The test and also the recommendations of the European and U.S. pharmacopoeias are described in Example 1 to follow.” left out, “PET. This test comprises artificially contaminating aliquots of formulation by means of a calibrated inoculum of specific microorganisms and incubating the same at precise temperatures. Samples are taken from the contaminated aliquots at given time intervals in order to count the microorganisms. Fungi: • Candida albicans, reference ATCC 10231; NCPF 3179; IP 48.72. • Aspergillus niger, reference ATCC 16404; IMI 149007; IP 1431.83. Fungi: • Candida albicans, reference ATCC 10231. • Aspergillus niger, reference ATCC 16404.” for “PET.”
compound,measurement,setting,value
O=C(O)CC(O)(CC(=O)O)C(=O)O [Citric acid],Efficacy on the microorganisms as a whole / spectrum of efficacy,[1],bactericidal
same,"Gram− bacterium, Esoherichia coli",[2],+
same,"Gram− bacterium, Pseudomonas aeruginosa",[3],++
same,pH,[4],2.04
same,Action on Candida albicans,[5],inhibits
same,"Yeast, Candida albicans",[5],++
same,"Gram+ bacterium, Staphylococcus aureus",[6],++
same,"Moulds, Aspergillus Niger",[7],−
